Source: US11771699B2, “Combined treatment with a TLR7 agonist and an HBV capsid assembly inhibitor” (Hoffmann-La Roche Inc., priority 2015, dated 2023)
Like-named read-outs stand apart in the source and are kept apart here.

Columns and labels:
HBV (AAV-HBV) = assay type: in vivo, C57BL/6 mice; conditions: for effect on HBV DNA: Example 7, FIG. 4-6; for effect on HBV DNA / effect on HBsAg: single treatment, 6 weeks PO, Compound 5 12 mg/kg QD; for effect on HBsAg: Example 7, FIG. 5-6; for reduction in HBV DNA: Compound 2 12 mg/kg QD
Excerpt: 4-week old male C57BL/6 mice, specific pathogen free, were purchased from Shanghai Laboratory Animal Center of Chinese Academy of Sciences (SLAC) and housed in an animal care facility in individually ventilated cages under controlled temperature and light conditions following the Institutional Animal Care guidelines. AAV/HBV virus was purchased from Beijing FivePlus Molecular Medicine Institute (Beijing, China). This recombinant virus carries 1.3 copies of the HBV genome, which was packaged in AAV serotype 8 (AAV8) capsids. C57BL/6 mice were injected with […], of recombinant virus, diluted in saline buffer, through tail vein injection. The mice were bled at days 7 and 14 post injection to monitor HBV surface antigen (HBsAg), HBV e antigen (HBeAg), HBs antibody (HBsAb) and HBV genomic DNA in serum, and then were randomly grouped according to these HBV biomarkers.
Measurement of HBV Biomarkers
Serum HBsAg and HBeAg was measured using CLIA kits (Autobio Diagnostics Co., Ltd, Zhengzhou, China) according to the manufacturer's instructions. The lower limit of detection for HBsAg and HBeAg was 0.1 ng/mL and 0.25 NCU/mL (national clinical unit/mL) respectively. Serum dilution of 100-fold (for HBsAg) or 500-fold (for HBeAg) was used to obtain values within the linear range of the standard curve. Serum HBV DNA was extracted using a MagNA Pure 96 DNA and Viral NA Small Volume Kit (Roche) following the manufacturer's instructions. The DNA samples were analyzed by real-time quantitative PCR (qPCR) using a HBV-specific primer and probe set for specific amplification and detection of a 128 bp HBV genome region from the nucleotide 2969 to 3096. The sequences of the primers and probe are shown as follows: […]
Anti-HBs in the serum was measured on day 24 after the treatment ended using Anti-HBs CLIA kits (Autobio Diagnostics Co., Ltd, Zhengzhou, China) following the manufacturer's instructions. The serum samples were 3-fold diluted and 50 μL of the diluted samples were used for the assay.
10 mg/mL of Compound 1 and 1.2 mg/mL of Compound 2 was formulated as an inclusion complex with 2% Klucel LF, 0.1% Polysorbate 80, and 0.1% Parabens in water. All the mice were orally dosed for a total of 6 weeks followed by a 2-week off-treatment period. In one single-treatment control study, the five mice of the group Compound 1 were treated with Compound 1 at 100 mg/kg every other day (QOD). The vehicle group was treated with an equivalent volume of oral-QD vehicle placebo (2% Klucel LF, 0.1% Polysorbate 80, and 0.1% Parabens in water). In the combination therapy study, the five mice of the group Compound 2 were administered at 12 mg/kg orally once daily (QD). The group Combo received 100 mg/kg of Compound 1 QOD plus 12 mg/kg Compound 2 QD. The vehicle group was treated with an equivalent volume of oral-QD vehicle placebo (2% Klucel LF, 0.1% Polysorbate 80, and 0.1% Parabens in water).
In another independent study, more combinations of a TLR7 agonist plus a Capsid inhibitor and corresponding single compound treatments were tested (summarized in Table 2) using the same AAV-HBV mouse model and method of measurement of HBV biomarkers described in Example 5.
In this study, eight mice were recruited in each group, and animals received the first dose on day 28 post AAV-HBV infection. The tested combinations included Compound 1 plus Compound 4, Compound 3 plus Compound 4, and Compound 1 plus Compound 5.

HBV = HBV infected transgenic mouse or humanized mouse models; cited from earlier work
human TLR7 = target: T1, human TLR7 (Homo sapiens, UniProt Q9NYK1); test: HEK293-Blue-hTLR-7 cells assay (NF-κB/AP-1 SEAP reporter); assay type: cell-based; conditions: 20 hours incubation, read-out: TLR7 agonism activity in HEK293-hTLR-7 assay
T1 sequence (Q9NYK1 27-1049): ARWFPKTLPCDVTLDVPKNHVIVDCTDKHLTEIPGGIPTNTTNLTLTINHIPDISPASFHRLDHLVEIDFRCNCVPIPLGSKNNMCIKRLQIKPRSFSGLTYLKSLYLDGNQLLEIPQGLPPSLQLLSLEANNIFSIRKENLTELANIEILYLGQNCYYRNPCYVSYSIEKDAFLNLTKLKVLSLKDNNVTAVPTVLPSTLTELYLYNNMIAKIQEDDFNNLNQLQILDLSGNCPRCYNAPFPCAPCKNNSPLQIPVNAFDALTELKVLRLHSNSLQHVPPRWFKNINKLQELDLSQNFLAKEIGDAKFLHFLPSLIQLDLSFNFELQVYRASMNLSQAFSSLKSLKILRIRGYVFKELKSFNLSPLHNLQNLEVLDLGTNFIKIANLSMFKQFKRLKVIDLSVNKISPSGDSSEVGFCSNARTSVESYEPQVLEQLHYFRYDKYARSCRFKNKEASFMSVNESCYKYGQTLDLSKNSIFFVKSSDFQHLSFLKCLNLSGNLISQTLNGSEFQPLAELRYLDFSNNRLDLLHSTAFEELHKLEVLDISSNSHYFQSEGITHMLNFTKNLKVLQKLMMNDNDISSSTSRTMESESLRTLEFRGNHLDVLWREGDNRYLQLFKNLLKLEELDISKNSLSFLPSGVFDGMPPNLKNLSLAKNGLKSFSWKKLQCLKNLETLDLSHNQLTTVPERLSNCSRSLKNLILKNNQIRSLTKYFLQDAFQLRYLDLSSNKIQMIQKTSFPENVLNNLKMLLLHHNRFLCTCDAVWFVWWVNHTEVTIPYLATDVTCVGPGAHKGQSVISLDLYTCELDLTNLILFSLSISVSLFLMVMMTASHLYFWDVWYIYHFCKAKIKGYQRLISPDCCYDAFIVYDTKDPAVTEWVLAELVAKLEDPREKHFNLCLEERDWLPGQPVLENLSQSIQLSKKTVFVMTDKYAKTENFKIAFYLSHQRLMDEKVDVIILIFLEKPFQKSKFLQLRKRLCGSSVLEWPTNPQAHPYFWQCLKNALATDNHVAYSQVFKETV
Excerpt: HEK293-Blue-hTLR-7 Cells Assay:
A stable HEK293-Blue-hTLR-7 cell line was purchased from InvivoGen (Cat.#: hkb-htlr7, San Diego, Calif., USA). These cells were designed for studying the stimulation of human TLR7 by monitoring the activation of NF-κB. A SEAP (secreted embryonic alkaline phosphatase) reporter gene was placed under the control of the IFN-β[…] minimal promoter fused to five NF-κB and AP-1-binding sites. The SEAP was induced by activating NF-κB and AP-1 via stimulating HEK-Blue hTLR7 cells with TLR7 ligands. Therefore the reporter expression was regulated by the NF-κB promoter upon stimulation of human TLR7 for 20 hours. The cell culture supernatant SEAP reporter activity was determined using QUANTI-Blue™ kit (Cat.#: rep-qb1, Invivogen, San Diego, Ca, USA) at a wavelength of 640 nm, a detection medium that turns purple or blue in the presence of alkaline phosphatase.
HEK293-Blue-hTLR7 cells were incubated at a density of 250,000˜450,000 cells/mL in a volume of 180 μL in a 96-well plate in Dulbecco's Modified Eagle's medium (DMEM) containing 4.5 g/L glucose, 50 U/mL penicillin, […], […], 2 mM L-glutamine, 10% (v/v) heat-inactivated fetal bovine serum for 24 h. […]

[1] = Example 8, FIG. 8, serum, end of the 6-week treatment, Compound 8 300 mg/kg QOD PO
[2] = Compound 4 20 mg/kg QD, Compound 3 30 mg/kg QOD
[3] = Example 6, FIG. 1, serum, after a 6-week treatment, oral, Compound 1 100 mg/kg QOD
[4] = Example 6, FIG. 1, serum, after a 6-week treatment, Compound 2 12 mg/kg QD oral

SMILES: CC(=O)O[C@@H]1C[C@@H](CO)O[C@H]1n1c(=O)sc2cnc(N)nc21 [Compound 8, 5-amino-3-(2′-O-acetyl-3′-deoxy-β-D-ribofuranosyl)-3H-thiazolo[4,5-d]pyrimidin-2-one]
- HBV DNA reduction (HBV (AAV-HBV); [1]): about 2 log
- HBsAg reduction (HBV (AAV-HBV); [1]): ~1.5 log

SMILES: CC(=O)O[C@@H](C1CC1)[C@H]1O[C@@H](n2c(=O)sc3cnc(N)nc32)CS1 [Compound 3, [(S)-[(2S,5R)-5-(5-amino-2-oxo-thiazolo[4,5-d]pyrimidin-3-yl)-1,3-oxathiolan-2-yl]-cyclopropyl-methyl] acetate]
- effect on HBV DNA (HBV (AAV-HBV); [2]): reduced
- effect on HBsAg (HBV (AAV-HBV); Compound 3 30 mg/kg QOD): reduced

SMILES: COC(=O)C1=C(C)NC(c2ncc(F)cc2F)=N[C@H]1c1ccc(F)cc1Cl [Bay 41-4109]
- in vivo efficacy (HBV DNA) (HBV): in vivo efficacy with HBV DNA reduction

SMILES: CC[C@H](O)[C@@H]1C[C@@H](O)[C@H](n2c(=O)sc3c(=O)[nH]c(N)nc32)O1 [compound 11]
- EC50 (human TLR7): 72 µM

SMILES: CCOC(=O)C1=C(CN2CCN3C(=O)N(CC(C)(C)C(=O)O)C[C@@H]3C2)NC(c2nccs2)=N[C@H]1c1cccc(F)c1C [Compound 4, 3-[(8aS)-7-[[(4S)-5-ethoxycarbonyl-4-(3-fluoro-2-methyl-phenyl)-2-thiazol-2-yl-1,4-dihydropyrimidin-6-yl]methyl]-3-oxo-5,6,8,8a-tetrahydro-1H-imidazo[1,5-a]pyrazin-2-yl]-2,2-dimethyl-propanoic acid]
- effect on HBV DNA (HBV (AAV-HBV); [2]): inhibited
- HBsAg reduction (HBV (AAV-HBV); Example 7, FIG. 4 and 5, serum, end of 6-week treatment, PO, Compound 1 100 mg/kg QOD, Compound 3 30 mg/kg QOD, Compound 4 20 mg/kg QD): 2 log

SMILES: CC[C@H](OC(C)=O)[C@@H]1C[C@@H](O)[C@H](n2c(=O)sc3cnc(N)nc32)O1 [Compound 1, [(1S)-1-[(2S,4R,5R)-5-(5-amino-2-oxo-thiazolo[4,5-d]pyrimidin-3-yl)-4-hydroxy-tetrahydrofuran-2-yl]propyl] acetate]
- reduction in HBsAg (HBV (AAV-HBV); [3]): more than 1 log
- reduction in HBV DNA (HBV (AAV-HBV); [3]): more than 2 log

SMILES: CCOC(=O)C1=C(CN2CCN3C(=O)N(CC(C)(C)C(=O)O)C[C@@H]3C2)NC(c2nccs2)=N[C@H]1c1cccc(F)c1Cl [Compound 2, 3-[(8aS)-7-[[(4R)-4-(2-chloro-3-fluoro-phenyl)-5-ethoxycarbonyl-2-thiazol-2-yl-1,4-dihydropyrimidin-6-yl]methyl]-3-oxo-5,6,8,8a-tetrahydro-1H-imidazo[1,5-a]pyrazin-2-yl]-2,2-dimethyl-propanoic acid]
- reduction in HBV DNA (HBV (AAV-HBV); [3]): more than 3 log
- HBV DNA level (HBV (AAV-HBV); [4]): below the LLQ
- HBsAg level (effect in words) (HBV (AAV-HBV); [4]): moderately reduced

SMILES: COC(=O)C1=C(CN2[C@@H]3C[C@H](CC(=O)O)C[C@H]2C(F)(F)C3)NC(c2nccs2)=N[C@H]1c1cccc(F)c1Cl [Compound 5, 2-[(1R,3S,5S)-8-[[(4R)-4-(2-chloro-3-fluoro-phenyl)-5-methoxycarbonyl-2-thiazol-2-yl-1,4-dihydropyrimidin-6-yl]methyl]-6,6-difluoro-8-azabicyclo[3.2.1]octan-3-yl]acetic acid]
- effect on HBV DNA (HBV (AAV-HBV); [2]): reduced
- effect on HBsAg (HBV (AAV-HBV); Compound 3 30 mg/kg QOD): reduced
